PubChem BioAssay AID2605 (Johns Hopkins Ion Channel Center, 2010)

Target: Voltage-gated inwardly rectifying potassium channel KCNH2 (Homo sapiens) (UniProt Q12809)
Test: compounds reversing dofetilide inhibition of hERG current – manual patch clamp, HEK293 cells, confirmation (AID 2605)
Settings: dofetilide rescue, at 10 µM, stronger effect = higher value; for potentiation: measured here: hERG potentiation without dofetilide

Voltage-gated inwardly rectifying potassium channel KCNH2 (Homo sapiens), sequence (Q12809 whole entry, looked up): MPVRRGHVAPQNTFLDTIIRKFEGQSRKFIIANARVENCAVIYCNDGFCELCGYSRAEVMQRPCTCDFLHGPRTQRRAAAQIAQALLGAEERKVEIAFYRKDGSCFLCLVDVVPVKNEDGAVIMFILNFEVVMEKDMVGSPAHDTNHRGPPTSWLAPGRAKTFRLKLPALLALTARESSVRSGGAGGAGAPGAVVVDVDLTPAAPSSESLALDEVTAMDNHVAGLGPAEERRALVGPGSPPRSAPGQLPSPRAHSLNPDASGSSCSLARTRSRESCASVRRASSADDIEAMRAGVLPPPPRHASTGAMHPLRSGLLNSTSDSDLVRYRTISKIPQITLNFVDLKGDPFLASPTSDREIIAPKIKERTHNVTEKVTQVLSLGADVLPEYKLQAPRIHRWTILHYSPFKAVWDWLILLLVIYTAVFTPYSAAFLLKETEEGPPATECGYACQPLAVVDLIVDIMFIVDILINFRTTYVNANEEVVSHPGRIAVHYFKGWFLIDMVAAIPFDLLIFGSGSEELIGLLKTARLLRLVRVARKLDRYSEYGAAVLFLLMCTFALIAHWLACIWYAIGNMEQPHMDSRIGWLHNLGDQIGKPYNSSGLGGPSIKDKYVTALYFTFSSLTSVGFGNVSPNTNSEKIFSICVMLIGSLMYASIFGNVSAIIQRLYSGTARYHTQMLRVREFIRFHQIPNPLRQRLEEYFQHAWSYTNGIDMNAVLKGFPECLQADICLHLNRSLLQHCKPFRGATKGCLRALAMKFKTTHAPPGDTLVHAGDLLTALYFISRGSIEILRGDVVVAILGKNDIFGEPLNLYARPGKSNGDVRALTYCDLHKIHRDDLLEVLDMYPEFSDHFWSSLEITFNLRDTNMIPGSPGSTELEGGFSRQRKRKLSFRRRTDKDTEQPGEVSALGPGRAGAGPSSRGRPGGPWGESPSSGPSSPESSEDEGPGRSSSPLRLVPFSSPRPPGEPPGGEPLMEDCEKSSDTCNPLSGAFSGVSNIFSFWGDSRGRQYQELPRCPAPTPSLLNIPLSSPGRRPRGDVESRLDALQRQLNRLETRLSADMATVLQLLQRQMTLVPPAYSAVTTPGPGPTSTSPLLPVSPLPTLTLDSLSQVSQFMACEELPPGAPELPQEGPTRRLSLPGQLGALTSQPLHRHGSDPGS

In the case of `CCC1CCCCN1C(=S)NC(=O)c1cccs1` (stereo not given), the current remaining with dofetilide is reported as 46.5% and the potentiation is reported as 140%.
`Cc1ccc(NC(=S)c2nc3ccccc3s2)cc1` showed a current remaining with dofetilide of 23.9% and a potentiation of 107%.
For `O=C1C2CC=CCC2C(=O)N1c1ccc(Cc2ccncc2)cc1` (stereo not given), the current remaining with dofetilide was 33.8% and the potentiation was 107%.
`O=C(NC(=S)Nc1ccccc1)c1cc(-c2ccccc2)nc2ccccc12` gave a current remaining with dofetilide of 31% and a potentiation of 119%.
`Cc1cccc(NC(=S)NC(=O)c2cc(-c3ccccc3)nc3ccccc23)c1` showed a current remaining with dofetilide of 32.2% and a potentiation of 107%.
